Data reported in patent US9993457B2, “Method of improving visual processing, visual acuity, or both by administering compositions comprising RRR-alpha-tocopherol and carotenoid to infants” (ABBOTT LABORATORIES, priority 2014, dated 2018).
Where two headings read alike, the source gives them in different places.

How the values were obtained:
[1] = in vivo
Description: In Example 1, the brain tissues of infants were sampled to measure the concentration of total alpha-tocopherol and RRR-alpha-tocopherol.
Subjects were infants (n=25) who died during the first year of life from either SIDS or other conditions. Brain tissues (occipital cortex, OC {n=17}; frontal cortex, FC {n−17}; and hippocampus, HPC {n=19}) from the NICHD Brain and Tissue Bank were processed using standard lipid extraction procedures and analyzed using chiral reverse phase HPLC. Data are presented as concentrations (μg/g tissue) of total alpha-tocopherol or RRR-alpha-tocopherol in the brain tissue.
The mean concentration in each region is denoted by a horizontal bar. […] In addition, total alpha-tocopherol was analyzed by age (in days) in the frontal cortex (graph B), hippocampus (graph C), and occipital cortex (graph D). […] RRR-alpha-tocopherol concentrations were also measured in the frontal cortex (graph E), hippocampus (graph F), and occipital cortex (graph G) of human infant brain tissues and reported as a function of age.

[2] = cited from earlier work

Compound: Cc1c(C)c2c(c(C)c1O)CC[C@@](C)(CCC[C@H](C)CCC[C@H](C)CCCC(C)C)O2 [alpha-tocopherol]
- change of total alpha-tocopherol concentration with age [1]: increased with age

Compound: Cc1c(C)c2c(c(C)c1O)CC[C@@](C)(CCC[C@H](C)CCC[C@H](C)CCCC(C)C)O2 [RRR-alpha-tocopherol]
- correlation between age and mean concentration [1]: strong correlation
- stereoisomer predominance compared to all non-RRR-alpha-tocopherol stereoisomers [1]: predominant stereoisomer
- biological activity relative to all-rac-alpha-tocopherol ([2]; accepted nutritional guidelines): 1.36 times
- biological activity relative to all-rac-alpha-tocopherol ([2]; recent studies): about 2 times
